Source: patent US7151180B2, “Potassium channel modulators” (Bristol-Myers Squibb Company, priority 2003, dated 2006)

Experiments:
[1] = tested on: cloned mammalian (mSlo or hSlo) BK channels expressed in Xenopus oocytes; experiment: Assay for BK channel openers: two-electrode voltage clamp of BK-mediated outward current in Xenopus oocytes; type: cell-based; settings: at 20 μM; percent increase over BK current in controls; voltage step to +140 mV; 5–10 oocytes
Description: The ability of the compounds of the invention to open BK channels and increase whole-cell outward (K^+) BK-mediated currents was assessed under voltage-clamp conditions by determining their ability to increase cloned mammalian (mSlo or hSlo) BK-mediated outward current heterologously expressed in Xenopus oocytes [Butler, A., et al., Science 1993, 261, 221–224; Dworetzky, S. I., et al., Mol. Brain Res. 1994, 27, 189–193; Gribkoff, V. K., et al., Mol. Phannacol. 1996, 50, 206–217]. The two BK constructs employed represent nearly structurally identical homologous proteins, and have proven to be pharmacologically indistinguishable in our tests. To isolate BK current from native (background, non-BK) current, the specific and potent BK channel-blocking toxin iberiotoxin (IBTX) [Galvez, A., et al., J. Biol. Chem. 1990, 265, 11083–11090] was employed at a supramaximal concentration, e.g., 50–100 nanomolar (“nM”). The relative contribution of BK channel-mediated current to total outward current was determined by subtraction of the current remaining in the presence of IBTX (non-BK current) from the current profiles obtained in all other experimental conditions (control, drug, and wash) [Gribkoff, V. K. et al., Mol. Pharmacol. 1996, 50, 206–217]. […] All compounds were tested in 5–10 oocytes and are reported at the indicated concentration of 20 micromolar (“μM”) (or as otherwise indicated); the effect of the selected compounds of the invention on BK current was expressed as the percent of control IBTX-sensitive current at a single transmembrane voltage (+140 mV) and is listed in Table 1.Recordings were accomplished using standard two-electrode voltage clamp techniques [Stuhmer, W., et al., Methods in Enzymology, 1992, 207, 319–339]; voltage-clamp protocols consisted of 500–750 milliseconds (“ms”) duration step depolarizations, from a holding potential of −60 mV, to a final voltage up to +140 mV in 20 mV steps. The experimental media (modified Barth's solution) consisted of millimolar (“mM”): NaCl (88), NaHCO3 (2.4), KCl (1.0), HEPES (10), MgSO4 (0.82), Ca(NO3)2 (0.33), CaCl2 (0.41); pH 7.5.

[2] = tested on: rat small intestine tissue; experiment: Relaxation of rat small intestine (ileum) strips (nifedipine-sensitive force); settings: integral of nifedipine-sensitive force, 30 min post-compound
Description: The ability of the compounds of the invention to relax rat small intestine tissue as a model for the treatment of irritable bowel syndrome is described as follows. Male rats (Harlan, Sprague Dawley, 250–350 g) were sacrificed by decapitation. A portion of small intestine (ileum) was removed and the attached connective tissues and intestinal contents removed. The ileum was cut into segments of ≦1 cm in length. The segments were mounted longitudinally between fixed hooks in organ baths containing warm (37° C.) physiological salt solution (composition in mM: NaCl 118.4,KCl 4.7,KH2PO4 1.2,MgSO4 1.2,CaCl2 1.8,Glucose 10.1, NaHCO3 25; gassed with 95% O2/5% CO2, pH 7.4). A stable tension of ˜1.5 g was maintained in the tissue segments during the equilibration period of 45 minutes. Changes in muscle tension were measured with isometric force transducers (Grass, FT-03C) and recorded using AcqKnowledge data acquisition system (AcqKnowledge for MP100WS, Biopac Systems Inc., Goleta, Calif.). Compound or vehicle was added in the baths for 30 minutes. “Zero” active force was established at the end of the experiment using nifedipine (20 μM). The effects of compounds or vehicle on force was determined by measuring the integral of nifedipine-sensitive force (including resting tone and spontaneous contractions) pre- and 30 min post-compound (or vehicle) addition. Results are expressed as the percentage inhibition of force. DMSO vehicle inhibited force (integral) by −0.6±3.0% (n=25).

[3] = tested on: rabbit corpus cavernosum tissue; experiment: Relaxation of rabbit corpus cavernosum strips (phenylephrine-induced force); settings: Oryctolagus cuniculus, inhibition of phenylephrine (3 μM)-induced force compared to vehicle control, read-out: % Inhibition of force (RCC strips)
Description: The ability of the compounds of the invention to relax rabbit corpus cavernosum tissue as a model for the treatment of erectile dysfunction is described as follows. New Zealand white rabbits (3.4–3.7 kg) were euthanized by sodium pentobarbital (100 mg/kg) overdose. The penis from each animal was rapidly removed and immersed in a cold oxygenated modified Krebs Henseleit bicarbonate buffer. The penis' outer tunica was removed and the corpus cavernosum smooth muscle obtained and cut into strips approximately 3–5 mm long. The strips were suspended in tissue baths containing physiological salt solution (see above), and allowed to equilibrate for at least one hour under resting tension of 1.0 gram. Isometric force was measured as described above. Tissue strips were stimulated with the α-agonist phenylephrine (3 μM) and allowed to reach a steady level of force prior to the addition of test compounds. The results are expressed as the percentage inhibition of phenylephrine-induced force as compared to vehicle control.

Structure (SMILES)	% MaxiK opening [1]	melting point	% Inhibition of force (RSI strips) [2]	inhibition [3]
O=c1[nH]c2ccc(C(F)(F)F)cc2c(-c2cc(Cl)ccc2O)c1Sc1ccncc1 [Example 4, 4-(5-Chloro-2-hydroxy-phenyl)-3-(pyridin-4-ylsulfanyl)-6-trifluoromethyl-1H-quinolin-2-one]	206%	257 to 260 °C	17%	36%
O=c1[nH]c2ccc(C(F)(F)F)cc2c(-c2cc(Cl)ccc2O)c1Sc1ccc(O)cc1 [Example 6, 4-(5-Chloro-2-hydroxyphenyl)-3-(4-hydroxyphenylsulfanyl)-6-trifluoromethyl-1H-quinolin-2-one]	307%	180 to 190 °C	21%	8%
COc1ccc(Cl)cc1-c1c(Sc2ccc(C(=O)O)cc2)c(=O)[nH]c2ccc(C(F)(F)F)cc12 [Example 11, 4-[4-(5-Chloro-2-methoxy-phenyl)-2-oxo-6-trifluoromethyl-1,2-dihydro-quinolin-3-ylsulfanyl]-benzoic acid]	177%	–	–	–
O=c1[nH]c2ccc(C(F)(F)F)cc2c(-c2cc(Cl)ccc2O)c1SCc1ccc(O)cc1 [Example 8, 4-(5-Chloro-2-hydroxyphenyl)-3-(4-hydroxybenzylsulfanyl)-6-trifluoromethyl-1H-quinolin-2-one]	227%	206 to 208 °C	–	33%
Cn1cnnc1Sc1c(-c2cc(Cl)ccc2O)c2cc(C(F)(F)F)ccc2[nH]c1=O [Example 5, 4-(5-Chloro-2-hydroxy-phenyl)-3-(4-methyl-4H-[1,2,4]triazol-3-ylsulfanyl)-6-trifluoromethyl-4a,8a-dihydro-1H-quinolin-2-one]	167%	–	–	35%
Nc1nnc(Sc2c(-c3cc(Cl)ccc3O)c3cc(C(F)(F)F)ccc3[nH]c2=O)s1 [Example 7, 3-(5-Amino-[1,3,4]thiadiazol-2-ylsulfanyl)-4-(5-chloro-2-hydroxyphenyl)-6-trifluoromethyl-1H-quinolin-2-one]	237%	260 to 270 °C	40%	45%
O=c1[nH]c2ccc(C(F)(F)F)cc2c(-c2cc(Cl)ccc2O)c1Sc1ccccc1O [Example 9, 4-(5-Chloro-2-hydroxyphenyl)-3-(2-hydroxyphenylsulfanyl)-6-trifluoromethyl-1H-quinolin-2-one]	145%	290 to 292 °C	–	–
O=c1[nH]c2ccc(C(F)(F)F)cc2c(-c2cc(Cl)ccc2O)c1Sc1ncccn1 [Example 3, 4-(5-Chloro-2-hydroxy-phenyl)-3-(pyrimidin-2-ylsulfanyl)-6-trifluoromethyl-1H-quinolin-2-one]	144%	302 to 303 °C	–	–
O=C(O)c1ccc(Sc2c(-c3cc(Cl)ccc3O)c3cc(C(F)(F)F)ccc3[nH]c2=O)cc1 [Example 10, 4-[4-(5-Chloro-2-hydroxy-phenyl)-2-oxo-6-trifluoromethyl-1,2-dihydro-quinolin-3-ylsulfanyl]-benzoic acid]	209%	–	–	29%
Cn1c(=O)c(Sc2ccc(N)cc2)c(-c2cc(Cl)ccc2O)c2cc(C(F)(F)F)ccc21 [Example 2, 3-[(4-Aminophenyl)thio]-4-(5-chloro-2-hydroxyphenyl)-1-methyl-6-(trifluoromethyl)-2(1H)-quinolinone]	144%	–	–	7%
Nc1ccc(Sc2c(-c3cc(Cl)ccc3O)c3cc(C(F)(F)F)ccc3[nH]c2=O)cc1 [Example 1, 3-[(4-Aminophenyl)thio]-4-(5-chloro-2-hydroxyphenyl)-6-(trifluoromethyl)-2(1H)-quinolinone]	392%	–	10%	27%
